Values of other authors, collected in US11975015B2, “Methods for treating degenerative disc disease and chronic lower back pain” (ECM Biologics, Inc., priority 2017, dated 2024).

Tested on: chronic low back pain (CLBP)
Conditions: amoxicillin 500 mg-clavulanic acid 125 mg three times a day for 100 days; Albert 2013, Palazzo 2017

amoxicillin-clavulanic acid
treatment outcome in CLBP patients: mixed results
